“Also recorded” adds a separate entry of the source.
Key:
[1] = tested on: human dermal fibroblasts; HDFs; assay: Alizarin Red S staining (staining figure), fibroblast to osteoblast, Example 1; type: cell-based; details: each compound 2 μM in calcification induction medium; day 24; FIG. 1
Experimental: It was washed 3 times with sterile distilled water. […] The well after staining was washed with sterile distilled water and photographed.
The concentrations of the compounds are as follows: • D4476: 2 μM • ALK5 inhibitor II: 2 μM • SB431542: 2 μM.

[2] = tested on: human dermal fibroblasts; HDFs; details: 4 μM in calcification induction medium; day 18; FIG. 20
Experimental: The calcification induction medium is a 10% FBS DMEM added with 50 μg/ml ascorbic acid, 10 mM β-glycerophosphate and 100 nM Dexamethasone. The culture medium was exchanged with a fresh one every 3-4 days, and culturing was performed until day 18. On day 18, the culture medium was removed from each well by suction, washed with PBS(−), and fixed with 10% formalin. It was washed 3 times with sterile distilled water. The well after staining with Alizarin Red S was washed with sterile distilled water, and photographed with an inverted microscope at ×40 magnification.

[3] = tested on: human dermal fibroblasts; HDFs; assay: Bodipy staining in WA medium, four inhibitors, Example 48; type: cell-based; details: day 12, FIG. 52
[4] = tested on: Human normal skin-derived fibroblasts (HDFs); assay: Real-time RT-PCR of ALP, Osteocalcin, Bonesialoprotein, Example 35; type: cell-based; details: calcification induction medium added with ALK5 i II 4 μM; day 18; FIG. 39
Experimental: The concentrations of the small molecule compound or cytokine added are as follows. • ALK5 i II: 4 μM • 1α,25-dihydroxy Vitamin D3 (VD3): 5 nM • Human insulin-like growth factor-1 (IGF-1): 100 ng/ml.

[5] = tested on: human gingival fibroblasts; GFs; details: 4 μM in calcification induction medium; day 18; FIG. 28
Experimental: (§1) The calcification induction medium is a 10% FBS DMEM added with 50 μg/ml ascorbic acid, 10 mM β-glycerophosphate and 100 nM Dexamethasone. The culture medium was exchanged with a fresh one every 3-4 days, and culturing was performed until day 18.
On day 18, the culture medium was removed from each well by suction, washed with PBS(−), and fixed with a fixative. It was washed 3 times with sterile distilled water. The well after ALP staining was washed with sterile distilled water, and photographed with an inverted microscope at ×40 magnification.

[6] = tested on: Human Epidermal Keratinocyte; NHEK (AD); details: CnT-PR medium, 1 μM or 10 μM; day 21; FIG. 56
[7] = tested on: Human normal skin-derived fibroblasts (HDFs); details: FIG. 42
Experimental: Human normal skin-derived fibroblasts (HDFs) were suspended in a general medium (DMEM added with 10% FBS). […] An adipocyte induction medium was added to group 2 at 1 mL/well. An adipocyte induction medium added with ALK5 inhibitor II at a concentration of 4 μM was added to groups 3-8 at 1 mL/well.
The adipocyte induction medium is DMEM added with 1 nM T3, 1 μM Rosiglitazone, 0.5 mM 3-isobutyl-1-methylxanthine (IBMX), 0.5 μM dexamethasone, 1 μg/mL Insulin and 10% FBS. Once every 2 days, the culture medium was exchanged with a fresh one. In groups 3-7, as described in the Figure, the cells were cultured in an adipocyte induction medium added with ALK5 inhibitor II only in the period of days 0-2, 0-4, 0-6, 0-8, 0-10, and thereafter cultured in an adipocyte induction medium free of ALK5 inhibitor II. On day 14, the culture medium was removed by suction from each well, and washed with PBS(−). After fixing with 4% para-formaldehyde, the well was washed with PBS (−), Permanent wave Buffer (0.2% Triton-X-added PBS) was added and the well was incubated for 15 min. After washing 3 times with PBS(−), Blocking One was added, and the mixture was incubated at room temperature for 60 min. Anti-UCP-1 antibody (RD MAB6158) was added and the mixture was reacted for 2 hrs at room temperature, and washed 3 times with Wash buffer. CF488-conjugated anti-mouse Ig antibody (Biotum 20014) was added and the mixture was reacted for 2 hrs at room temperature, and washed 3 times with PBS(−). After nuclear staining with SlowFade Gold antifade reagent with DAPI manufactured by Lifetechnology, the cells were photographed with a fluorescence microscope at ×100 magnification.

[8] = tested on: human dermal fibroblasts; HDFs; assay: Real-time RT-PCR of AdipoQ, Example 14; type: cell-based; details: D4476, SB431542, ALK5 Inhibitor II 2 μM, PD0325901 1 μM, in addition to T3 and Rosiglitazone; day 14; FIG. 14
Experimental: The concentrations of the additives are as follows: • T3: 1 nM • Rosiglitazone: 1 μM • D4476: 2 μM. • Pifithrin alpha [p53 inhibitor]: 5 μM • PD0325901: 1 μM • SB431542: 2 μM • ALK5 Inhibitor II: 2 μM.

[9] = tested on: human dermal fibroblasts; HDFs; assay: Bodipy staining in WA medium (BODIPY positive cells), Example 46; details: day 12, FIG. 50
[10] = tested on: human gingival fibroblasts; GFs; details: 4 μM in calcification induction medium; day 18; FIG. 27
Experimental: as §1
On day 18, the culture medium was removed from each well by suction, washed with PBS(−), and fixed with 10% formalin. It was washed 3 times with sterile distilled water. The well after Alizarin Red S staining was washed with sterile distilled water, and photographed with an inverted microscope at ×40 magnification.

[11] = tested on: human dermal fibroblasts; HDFs; details: cartilage induction medium added with 2 M ALK5 inhibitor II; day 18; FIG. 9
Experimental: Once every 2 days, the culture medium was exchanged with a fresh one, and culturing was performed until day 18. The cells were washed twice with PBS(−), once with 3% acetic acid solution, an alcian blue staining solution (PH2.5) (Nacalai Tesque) was added and the cells were stained for 1 hr at room temperature. The cells were washed 3 times with PBS(−) and observed under a microscope.

[12] = tested on: human peripheral blood mononuclear cells; PBMCs; details: P-adipocyte induction medium, 4 μM; day 14; FIG. 57
Experimental: Human normal peripheral blood mononuclear cells (human peripheral blood mononuclear cells; PBMCs) were suspended in Control medium (RPMI1640 medium added with 10% FBS). […] P-adipocyte induction medium (adipocyte induction medium for peripheral blood mononuclear cell) was added to group 2 at 1 mL/well. P-adipocyte induction medium added with ALK5 inhibitor II at a concentration of 4 μM was added to group 3 at 1 mL/well. The P-adipocyte induction medium is RPMI1640 medium added with 10% FBS, 30 U/ml recombinant hIL-2, 1 nM T3, 1 μM Rosiglitazone, 0.5 mM 3-isobutyl-1-methylxanthine (IBMX), 0.5 μM dexamethasone and 1 μg/mL Insulin. Once every 2 days, 50% of the culture medium was exchanged with a fresh one.
On day 14, the culture medium was removed by suction from each well, washed with PBS(−) and total RNA was extracted from the cells by using RNA easy Mini Kit manufactured by Qiagen. cDNA was synthesized from the RNA by using Rever Tra Ace qPCR RT Master Mix. This cDNA was admixed with Real-time PCR Master Mix, primers specific to FABP4 gene or β actin gene and Taqman probe. qRT-PCR was performed using AB7300 Real-time PCR system. The mRNA level of FABP4 gene was quantified as a ratio to 3-actin gene mRNA level, and calculated with the value of human normal peripheral blood mononuclear cell cultured in the general medium as 1.

[13] = tested on: human dermal fibroblasts; HDFs; assay: Oil Red O staining, fibroblast to brown adipocyte, Example 12; type: cell-based; details: compound 2 μM in addition to T3 1 nM and Rosiglitazone 1 μM, adipocyte induction medium; day 14; FIG. 12
Experimental: The concentrations of the additives are as follows: • T3: 1 nM • Rosiglitazone: 1 μM • D4476: 2 μM • Pifithrin alpha [p53 inhibitor]: 5 μM • SB431542: 2 μM • ALK5 Inhibitor II: 2 μM.
Then, the cells were washed with sterile distilled water and photographed with a phase contrast microscope at ×100 magnification.

## Cc1cccc(-c2n[nH]cc2-c2ccc3ncccc3n2)n1 [ALK5 inhibitor II, 2-(3-(6-Methylpyridin-2-yl)-1H-pyrazol-4-yl)-1,5-naphthyridine]
[1]
  conversion of human fibroblast to osteoblast, Alizarin Red S staining (staining figure): converted to osteoblast having calcified is bone matrix production ability; also recorded: most efficiently converts fibroblast to osteoblast
[2]
  conversion of fibroblast to osteoblast, Alizarin Red S staining: converted human skin-derived fibroblast to osteoblast that produces a large amount of calcified bone matrix
[3]; WA medium added with 16 μM compound alone
  lipid droplets stained with Bodipy, inhibitor alone: only a few cells contained lipid droplets stained with Bodipy
[3]; WA medium added with 16 μM compound and 1 μM Rosiglitazone
  lipid droplets stained with Bodipy / conversion to white adipocyte, inhibitor and Rosiglitazone: many cells were stained; also recorded: most strongly induced conversion of fibroblast to white adipocyte
[4]
  mRNA expression of ALP: significantly increased
  mRNA expression of BSP, compared to calcification induction medium: increased
  mRNA expression of OC, compared to calcification induction medium: increased
[5]
  conversion of gingival-derived fibroblast to osteoblast, ALP staining: converted human gingival-derived fibroblast to osteoblast having high ALP activity
[6]
  conversion of epidermal keratinocyte to urothelial cell, Uroplakin 1b and Uroplakin 3b mRNA: converted human epidermal keratinocyte to urothelial cell expressing Uroplakin 1b gene and Uroplakin 3b gene
[7]; 4 μM for 0-8 days, thereafter medium free of ALK5 inhibitor II
  conversion of fibroblast to brown adipocyte, UCP1 protein, exposure 0-8 days: can be more strongly induced
[7]; 4 μM in adipocyte induction medium, days 0-2 to 0-10 or throughout, day 14
  staining with anti-UCP1 antibody, groups 3-8: many cells were stained with anti-UCP1 antibody
[7]; 4 μM in adipocyte induction medium, day 14
  conversion of fibroblast to brown adipocyte, UCP1 protein: converted fibroblast to brown adipocyte is highly expressing UCP1 protein
[7]; 4 μM only in days 0-8, day 14
  staining with anti-UCP1 antibody, group 6: the density of the cells stained with anti-UCP1 antibody was the highest
[8]
  conversion of fibroblast to brown adipocytes, AdipoQ mRNA: converted fibroblast to brown adipocytes expressing mRNA of AdipoQ gene
[9]; WA medium co-added with 8 μM or 16 μM ALK5 inhibitor II and 1 μM Rosiglitazone
  BODIPY positive cells / conversion to white adipocyte, co-addition with Rosiglitazone: more cells were stained; also recorded: more strongly induced conversion of fibroblast to white adipocyte
[9]; WA medium, 1 μM Rosiglitazone or 16 μM ALK5 inhibitor II
  BODIPY positive cells / conversion to white adipocyte, single addition: contained stained cells at low frequency; also recorded: converted human fibroblast to white adipocyte
[10]
  conversion of gingival-derived fibroblast to osteoblast, Alizarin Red S staining: converted human gingival-derived fibroblast to osteoblast that produces a large amount of calcified bone matrix
[11]
  conversion of fibroblast to cartilage, alcian blue staining: can convert human normal skin-derived fibroblast to cartilage that produces cartilage matrix stained blue
[12]
  conversion of peripheral blood mononuclear cell to white adipocyte, FABP4 mRNA: converts human normal peripheral blood mononuclear cell to white adipocyte expressing FABP4 gene
[13]
  conversion of fibroblast to brown adipocyte, Oil Red O staining: converted fibroblast to brown adipocyte
